Assay results taken from US12344623B2, “Thiazolopyridine derivatives as adenosine receptor antagonists” (Merck Patent GmbH, priority 2019, dated 2025).
pIC50: −log10 of the molar value. Read-outs that look alike come from different tables or passages of the source.

Assays:
Type in all cases: cell-based
human A2B receptor = target: T1, human A2B receptor (Homo sapiens, UniProt P29275); test: Functional A2B receptor activity, recombinant HEK293 cells, cAMP (HTRF), agonist NECA
T1 construct: expressed in transfected cells; host or cells: HEK293
T1 sequence (P29275 1-332): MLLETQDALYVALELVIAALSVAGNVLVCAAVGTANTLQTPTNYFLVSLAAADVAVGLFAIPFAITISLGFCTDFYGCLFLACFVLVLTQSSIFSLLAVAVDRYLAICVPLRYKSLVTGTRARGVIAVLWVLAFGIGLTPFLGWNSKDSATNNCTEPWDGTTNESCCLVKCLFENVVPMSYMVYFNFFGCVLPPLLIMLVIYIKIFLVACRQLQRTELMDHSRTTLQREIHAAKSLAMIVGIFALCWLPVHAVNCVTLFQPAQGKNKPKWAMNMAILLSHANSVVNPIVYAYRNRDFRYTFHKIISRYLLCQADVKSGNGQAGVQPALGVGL
Method: (§1) The functional activities of human A2A, A2B, A1 and A3 receptors were determined by quantification of cAMP, being the second messenger for adenosine receptors.
(§2) Cells were seeded into 384-well plates, forskolin, test compounds and agonists (CPA for A1- and IB-MECA for A3-receptor) were added. After 30 min incubation, HTRF reagents (cAMP dynamic 2, Cis Bio) were added and the cellular cAMP levels were determined using the ENVISION (Perkin Elmer) plate reader. Obtained raw data were normalized against the inhibitor control and the neural control (DMSO) and the normalized data were fitted using GeneData software.

human A1 receptor = target: T2, human A1 receptor (Homo sapiens, UniProt P30542); test: Functional A1 receptor activity, recombinant CHO cells, cAMP (HTRF), forskolin, agonist CPA
T2 construct: expressed in transfected cells; host or cells: CHO
T2 sequence (P30542 1-326): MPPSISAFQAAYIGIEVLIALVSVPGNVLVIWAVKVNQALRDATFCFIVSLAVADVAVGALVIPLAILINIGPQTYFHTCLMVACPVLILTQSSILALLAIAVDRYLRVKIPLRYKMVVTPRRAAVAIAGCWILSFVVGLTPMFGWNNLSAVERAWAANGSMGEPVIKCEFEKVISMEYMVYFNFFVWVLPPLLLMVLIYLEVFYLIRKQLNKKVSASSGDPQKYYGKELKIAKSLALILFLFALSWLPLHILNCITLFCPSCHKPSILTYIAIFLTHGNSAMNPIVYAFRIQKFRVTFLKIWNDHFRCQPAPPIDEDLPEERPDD
Method: as §1
(§3) For human A1 and A3 receptors, recombinant CHO cells, expressing either A1 or A3-receptor, were used. As both receptors couple to Gi proteins, the assay protocol was adapted:
as §2

human A3 receptor = target: T3, human A3 receptor (Homo sapiens, UniProt P0DMS8); test: Functional A3 receptor activity, recombinant CHO cells, cAMP (HTRF), forskolin, agonist IB-MECA
T3 construct: expressed in transfected cells; host or cells: CHO
T3 sequence (P0DMS8 1-318): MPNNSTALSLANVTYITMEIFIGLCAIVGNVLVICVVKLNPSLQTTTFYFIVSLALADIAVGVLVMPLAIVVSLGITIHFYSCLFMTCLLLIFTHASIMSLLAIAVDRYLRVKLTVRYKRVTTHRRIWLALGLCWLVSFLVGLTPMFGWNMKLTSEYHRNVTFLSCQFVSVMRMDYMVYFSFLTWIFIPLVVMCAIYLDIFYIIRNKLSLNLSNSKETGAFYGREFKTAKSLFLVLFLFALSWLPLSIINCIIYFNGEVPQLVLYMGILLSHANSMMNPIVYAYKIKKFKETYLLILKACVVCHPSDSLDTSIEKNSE
Method: as §1, §3, §2

human A2A receptor = human A2A receptor (Homo sapiens, UniProt P29274); test: Functional A2A receptor activity, recombinant HEK293 cells, cAMP (HTRF), agonist NECA; parameters: expressed in transfected cells; host or cells: HEK293
human A2A receptor, sequence (P29274 whole entry): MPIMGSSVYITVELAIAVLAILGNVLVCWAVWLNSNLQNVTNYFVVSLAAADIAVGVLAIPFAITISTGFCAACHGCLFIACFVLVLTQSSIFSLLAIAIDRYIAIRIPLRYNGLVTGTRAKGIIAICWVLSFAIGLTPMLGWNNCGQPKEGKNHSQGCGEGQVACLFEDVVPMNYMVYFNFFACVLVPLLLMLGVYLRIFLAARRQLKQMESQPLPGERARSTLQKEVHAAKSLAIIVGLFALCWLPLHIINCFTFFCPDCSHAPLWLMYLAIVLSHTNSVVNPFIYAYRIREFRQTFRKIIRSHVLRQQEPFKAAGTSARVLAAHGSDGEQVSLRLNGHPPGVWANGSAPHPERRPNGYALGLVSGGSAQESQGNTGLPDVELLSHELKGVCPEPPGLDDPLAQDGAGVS
Method: as §1, §2

[1] = read-out: Functional A2B receptor activity, HEK293, cAMP, IC50
[2] = recombinant CHO cells, forskolin, agonist CPA, read-out: Functional A1 receptor activity, CHO, cAMP, IC50
[3] = recombinant CHO cells, forskolin, agonist IB-MECA, read-out: Functional A3 receptor activity, CHO, cAMP, IC50
[4] = read-out: Functional A2A receptor activity, HEK293, cAMP, IC50
[5] = recombinant CHO cells, forskolin, agonist CPA, cAMP, read-out: Functional A1 receptor activity, CHO, cAMP, IC50
[6] = recombinant CHO cells, forskolin, agonist IB-MECA, cAMP, read-out: Functional A3 receptor activity, CHO, cAMP, IC50

SMILES	pIC50 (human A2B receptor; [1])	pIC50 (human A1 receptor; [2])	pIC50 (human A3 receptor; [3])	pIC50 (human A2A receptor; [4])	pIC50 (human A2B receptor)	pIC50 (human A1 receptor)	pIC50 (human A3 receptor)	pIC50 (human A2A receptor)	pIC50 (human A1 receptor; [5])	pIC50 (human A3 receptor; [6])
COc1ncc([C@@H]2COCCO2)c2sc(NC(=O)c3ccc(C(=O)O)cc3)nc12 [Compound 169, N-((R)-7-[1,4]Dioxan-2-yl-4-methoxy-thiazolo[4,5-c]pyridin-2-yl)-terephthalamic acid]	> 7.00	< 6.00	< 6.00	> 8.00	–	–	–	–	–	–
COc1ccc(C2CCOCC2)c2sc(NC(=O)N3CCC4(CC3)OCCO4)nc12 [reference compound]	–	–	–	–	> 6.00	< 6.00	< 6.00	> 8.00	–	–
COc1ccc(C2CCOCC2)c2sc(NC(=O)N3CCOCC3)nc12 [reference compound]	> 6.00	–	–	> 8.00	–	–	–	–	> 6.00	< 6.00
COc1ncc(C2CCCCC2)c2sc(NC(=O)N3CCC4(CCOCC4)C3)nc12 [Compound 62, 8-Oxa-2-aza-spiro[4.5]decane-2-carboxylic acid (7-cyclohexyl-4-methoxy-thiazolo[4,5-c]pyridin-2-yl)-amide]	> 7.00	< 6.00	< 6.00	> 8.00	–	–	–	–	–	–
COc1ncc(-c2ccc(=O)[nH]c2)c2sc(NC(=O)N3CCC4(CCOCC4)C3)nc12 [Compound 78, 8-Oxa-2-aza-spiro[4.5]decane-2-carboxylic acid [4-methoxy-7-(6-oxo-1,6-dihydro-pyridin-3-yl)-thiazolo[4,5-c]pyridin-2-yl]-amide]	> 6.00	< 6.00	< 6.00	> 8.00	–	–	–	–	–	–
COc1ncc(C2=CCOCC2)c2sc(NC(=O)c3cnn(-c4ccccc4)c3)nc12 [Compound 156, 1-Phenyl-1H-pyrazole-4-carboxylic acid [7-(3,6-dihydro-2H-pyran-4-yl)-4-methoxy-thiazolo[4,5-c]pyridin-2-yl]-amide]	> 8.00	> 6.00	< 6.00	> 8.00	–	–	–	–	–	–
COc1ncc(C2=CCOCC2)c2sc(NC(=O)c3ccc(Cn4ccnc4)cc3)nc12 [Compound 82, N-[7-(3,6-dihydro-2H-pyran-4-yl)-4-methoxy-[1,3]thiazolo[4,5-c]pyridin-2-yl]-4-[(1H-imidazol-1-yl)methyl]benzamide]	> 8.00	> 7.00	< 6.00	> 8.00	–	–	–	–	–	–
COc1ncc(C2=CCOCC2)c2sc(NC(=O)Nc3ccc(NC(C)=O)c(C)c3)nc12 [Compound 92, N-[4-({[7-(3,6-dihydro-2H-pyran-4-yl)-4-methoxy-[1,3]thiazolo[4,5-c]pyridin-2-yl]carbamoyl}amino)-2-methylphenyl]acetamide]	> 8.00	> 7.00	> 6.00	> 8.00	–	–	–	–	–	–
COc1nc(F)c(C2CCOCC2)c2sc(NC(=O)N3CCC4(CCOC4)C3)nc12 (stereo not shown) [Compound 33, N-[6-fluoro-4-methoxy-7-(oxan-4-yl)-[1,3]thiazolo[4,5-c]pyridin-2-yl]-2-oxa-7-azaspiro[4.4]nonane-7-carboxamide]	> 7.00	< 6.00	< 6.00	> 8.00	–	–	–	–	–	–
COc1ncc(-c2cnn(CC3CCCCO3)c2)c2sc(NC(=O)N3CCC4(CCOCC4)C3)nc12 (stereo not shown) [Compound 84, 8-Oxa-2-aza-spiro[4.5]decane-2-carboxylic acid {4-methoxy-7-[1-(tetrahydro-pyran-2-ylmethyl)-1H-pyrazol-4-yl]-thiazolo[4,5-c]pyridin-2-yl}-amide]	> 7.00	> 7.00	< 6.00	> 8.00	–	–	–	–	–	–
COc1ncc(-c2ccc(C)s2)c2sc(NC(=O)N3CCC4(CCOCC4)C3)nc12 [Compound 113, 8-Oxa-2-aza-spiro[4.5]decane-2-carboxylic acid [4-methoxy-7-(5-methyl-thiophen-2-yl)-thiazolo[4,5-c]pyridin-2-yl]-amide]	> 7.00	< 6.00	< 6.00	> 8.00	–	–	–	–	–	–
COCCNc1ncc(C(=O)Nc2nc3c(OC)ncc(C4=CCOCC4)c3s2)s1 [Compound 81, N-[7-(3,6-dihydro-2H-pyran-4-yl)-4-methoxy-[1,3]thiazolo[4,5-c]pyridin-2-yl]-2-[(2-methoxyethyl)amino]-1,3-thiazole-5-carboxamide]	> 8.00	> 6.00	< 6.00	> 8.00	–	–	–	–	–	–
COc1cnc(N2CCOCC2)c2sc(NC(=O)N3CCOCC3)nc12 [drawing 193, reference compound]	> 6.00	–	–	> 8.00	–	–	–	–	< 6.00	> 6.00
COc1ncc(C2=CCOCC2)c2sc(NC(=O)N3CCC(C(N)=O)CC3)nc12 [Compound 106, N1-[7-(3,6-dihydro-2H-pyran-4-yl)-4-methoxy-[1,3]thiazolo[4,5-c]pyridin-2-yl]piperidine-1,4-dicarboxamide]	> 7.00	> 6.00	< 6.00	> 8.00	–	–	–	–	–	–
COc1ncc(-c2ccnc(N)c2)c2sc(NC(=O)N3CCC4(CCOCC4)C3)nc12 [Compound 124, 8-Oxa-2-aza-spiro[4.5]decane-2-carboxylic acid [7-(2-amino-pyridin-4-yl)-4-methoxy-thiazolo[4,5-c]pyridin-2-yl]-amide]	> 8.00	< 6.00	< 6.00	> 8.00	–	–	–	–	–	–
COc1ncc(-c2cccc(Oc3cccnc3)c2)c2sc(NC(=O)N3CCC4(CCOCC4)C3)nc12 [Compound 160, 8-Oxa-2-aza-spiro[4.5]decane-2-carboxylic acid {4-methoxy-7-[3-(pyridin-3-yloxy)-phenyl]-thiazolo[4,5-c]pyridin-2-yl}-amide]	> 8.00	> 6.00	< 6.00	> 8.00	–	–	–	–	–	–
COc1ncc(C2=CCOC2)c2sc(NC(=O)N3CCC4(CCCOC4)C3)nc12 (stereo not shown) [Compound 45, N-[7-(2,5-dihydrofuran-3-yl)-4-methoxy-[1,3]thiazolo[4,5-c]pyridin-2-yl]-7-oxa-2-azaspiro[4.5]decane-2-carboxamide]	> 7.00	< 6.00	< 6.00	> 7.00	–	–	–	–	–	–
COc1ncc(C2=CCOCC2)c2sc(NC(=O)N3CCC4(CCOC4)C3)nc12 (stereo not shown) [Compound 108, N-[7-(3,6-dihydro-2H-pyran-4-yl)-4-methoxy-[1,3]thiazolo[4,5-c]pyridin-2-yl]-2-oxa-7-azaspiro[4.4]nonane-7-carboxamide]	> 8.00	> 6.00	< 6.00	> 8.00	–	–	–	–	–	–
COc1ncc(C2=CCOC2)c2sc(NC(=O)N3CCC4(CCOCC4)C3)nc12 [Compound 44, N-[7-(2,5-dihydrofuran-3-yl)-4-methoxy-[1,3]thiazolo[4,5-c]pyridin-2-yl]-8-oxa-2-azaspiro[4.5]decane-2-carboxamide]	> 7.00	< 6.00	< 6.00	> 7.00	–	–	–	–	–	–
COc1cnc(N2CCOCC2)c2sc(NC(=O)N3CCCCC3)nc12 [drawing 192, reference compound]	> 6.00	–	–	> 8.00	–	–	–	–	< 6.00	> 7.00
COc1ccc(-c2ccccc2)c2sc(NC(=O)NCCN3CCCCC3)nc12 [drawing 187, reference compound]	< 6.00	–	–	> 7.00	–	–	–	–	< 6.00	< 6.00
COc1nc(F)c(N2CCOCC2)c2sc(NC(=O)C3CC3)nc12 [Compound 4, Cyclopropanecarboxylic acid (6-fluoro-4-methoxy-7-morpholin-4-yl-thiazolo[4,5-c]pyridin-2-yl)-amide]	> 8.00	< 6.00	> 6.00	> 8.00	–	–	–	–	–	–
